Test results: US20200188475A1, “REAGENTS FOR INDUCING AN IMMUNE RESPONSE” (Dana-Farber Cancer Institute, Inc., priority 2007, published 2020)
Ends that are not written are not given here. * marks the point of attachment. R1 = nitroxide spin-labeled side chain, CC1(C)C=C(CS*)C(C)(C)N1[O]

Columns and labels:
liposomes = assay: MPER binding to liposomes as a function of membrane composition; conditions: liposomes of DMPC, 4:1 DOPC:DOPG or HIV membrane-mimicking composition; preliminary studies
[1] = Aqueous solubility of the MPER segment; format: physicochemical
[2] = Stability of MPER adsorption to lipid-enveloped PLGA microparticles in serum-containing medium (confocal imaging); format: physicochemical; conditions: culture medium containing 10% FCS in the presence of DCs, FITC-tagged MPER, qualitative; preliminary studies
4E10 antibody = assay: SPR (BIAcore) 4E10 binding to MPER variant or spin-labeled peptides on liposomes; conditions: for 4E10 antibody binding to the spin-labeled MPER peptide: membrane-bound spin-labeled peptides, POPC/POPG liposomes; for decrease of 4E10 binding to the lipid-embedded MPER: mutation of N671 to residues occurring in other viral strains
[3] = molecular target: MPER segment 662-683 of HXB2 strain HIV-1 gp160 (HIV-1 (HXB2 strain)); assay: ITC at 25 °C, MPER peptide with virion membrane-like liposomes injected into 4E10 Fab
[4] = molecular target: MPER segment 662-683 of HXB2 strain HIV-1 gp160 (HIV-1 (HXB2 strain)); assay: SPR, intact IgG over membrane-bound MPER, global fit with a two-step conformational change model

## ELDKWASLWNWFNITNWLWYIK [MPER]
liposomes
  order of MPER binding affinity by liposome composition: DMPC<DOPC/DOPG<HIV mimic
[1]
  solubility in aqueous solutions: can only be solubilized in aqueous solutions in the presence of detergents or lipid vesicles
[2]
  stability of MPER adsorption: stably adsorbed to lipid-enveloped PLGA microparticles for at least a few hours

## T676: MPER 662-683 peptide with cysteine substitution and nitroxide spin label R1 at position T676 (ELDKWASLWNWFNIC(R1)NWLWYIK)
4E10 antibody
  4E10 antibody binding to the spin-labeled MPER peptide: completely abolished

## F673: MPER 662-683 peptide with cysteine substitution and nitroxide spin label R1 at position F673 (ELDKWASLWNWC(R1)NITNWLWYIK)
4E10 antibody
  4E10 antibody binding to the spin-labeled MPER peptide: completely abolished

## 4E10 antigen-binding fragment (Fab)
[3]
  Kd: 1 µM
  enthalpy change: -105 kJ/mol
  entropic energy change (-TDS): 70.7 kJ/mol

## 4E10 broadly neutralizing anti-gp41 antibody (intact IgG)
[4]
  Kd: 0.01 µM

## N671G: HXB2 MPER single amino acid variant, N671 to G (ELDKWASLWGWFNITNWLWYIK)
4E10 antibody
  decrease of 4E10 binding to the lipid-embedded MPER: severely

## N671T: HXB2 MPER single amino acid variant, N671 to T (ELDKWASLWTWFNITNWLWYIK)
4E10 antibody
  decrease of 4E10 binding to the lipid-embedded MPER: severely

## N671D: HXB2 MPER single amino acid variant, N671 to D (ELDKWASLWDWFNITNWLWYIK)
4E10 antibody
  decrease of 4E10 binding to the lipid-embedded MPER: severely

## W672: MPER 662-683 peptide with cysteine substitution and nitroxide spin label R1 at position W672 (ELDKWASLWNC(R1)FNITNWLWYIK)
4E10 antibody
  4E10 antibody binding to the spin-labeled MPER peptide: completely abolished

## N671S: HXB2 MPER single amino acid variant, N671 to S (ELDKWASLWSWFNITNWLWYIK)
4E10 antibody
  decrease of 4E10 binding to the lipid-embedded MPER: moderately
